Article PMC3681751, “Identification of a Novel Antimicrobial Peptide from Human Hepatitis B Virus Core Protein Arginine-Rich Domain (ARD)” (PLoS Pathogens, 2013)
Residues, ends and D or L forms follow the SMILES beside them.

Columns and labels:
P. aeruginosa = experiment: SYTOX Green uptake (membrane permeabilization); format: cell-based, Pseudomonas aeruginosa; settings: 2 µM peptide; 10^7 CFU, 1 µM SYTOX Green, 37°C, ex 485 nm/em 520 nm
Method: (§1) Briefly, bacteria (10^7 CFU) were prepared and mixed with 1 µM SYTOX Green (Invitrogen) for 15 minutes in the dark. […] Melittin (Sigma), the major toxin of bee venom, was used as a positive control to provide maximal permeabilization.

K. pneumonia = experiment: SYTOX Green uptake (membrane permeabilization); format: cell-based, Klebsiella pneumoniae; settings: 4 µM peptide; 10^7 CFU, 1 µM SYTOX Green, 37°C
Method: as §1

E. coli = experiment: SYTOX Green uptake (membrane permeabilization); format: cell-based, Escherichia coli; settings: 4 µM peptide; 10^7 CFU, 1 µM SYTOX Green, 37°C
Method: as §1

S. aureus = experiment: SYTOX Green uptake (membrane permeabilization); format: cell-based, Staphylococcus aureus; settings: 4 µM peptide; 10^7 CFU, 1 µM SYTOX Green, 37°C
Method: as §1

HEK293 cells [1] = experiment: Cytotoxicity, MTT assay; format: cell-based, human; settings: 1 hour at 37°C; HBc147-183 at 100 µM, melittin at 3.125 µM; triplicates
Method: (§2) Cytotoxicity was measured for HepG2, Huh7, HEK293, and Vero cells by MTT assay. Cells were seeded at 10^4 cells/well in a 96-well plate and serial dilutions of peptides were added into each well. PBS was used as a negative control and melittin was used as a positive control. After 1 hour of incubation, the medium were replaced by fresh medium containing 10% MTT solution (Promega), and the plate was incubated for 4 hours in 5% CO2 at 37°C. The absorbance at the wavelength of 595 nm was measured by an ELISA reader (Bio-Rad model 680).

HepG2 cells = experiment: Cytotoxicity, MTT assay; format: cell-based, human; settings: 1 hour at 37°C; HBc147-183 at 100 µM, melittin at 3.125 µM; triplicates
Method: as §2

Huh7 cells = experiment: Cytotoxicity, MTT assay; format: cell-based, human; settings: 1 hour at 37°C; HBc147-183 at 100 µM, melittin at 3.125 µM; triplicates
Method: as §2

Vero cells = experiment: Cytotoxicity, MTT assay; format: cell-based, monkey; settings: 1 hour at 37°C; HBc147-183 at 100 µM, melittin at 3.125 µM; triplicates
Method: as §2

HEK293 cells [2] = experiment: CFSE cell proliferation assay; format: cell-based, human; settings: 5, 25 and 100 µM for 1 hour; flow cytometry
Method: To set up CFSE cell proliferation assay, 293 cells (human kidney origin) and Vero cells (monkey kidney origin) were resuspended in PBS to a final concentration of 10^6 cells/ml, before incubation with 10 µM CFSE dye (CellTrace CFSE cell proliferation kit, Invitrogen) at 37°C for 10 min. To quench the staining, ice-old culture media were then added and incubated on ice for 5 min. Labeled cells were then pelleted and washed three times by fresh medium containing 10% FBS before seeding into six well plates at a density of 3.3×10^5cells/well. After 20 h, the medium was removed and incubated with fresh medium containing 5, 25 and 100 µM HBc 147-183 for one hour (FITC-labeled ARD peptide had been largely internalized in 10 minutes after the addition of ARD peptides to the medium of HepG2 cells). Forty-eight hours later, cells were harvested and analyzed by flow cytometry (FACSCanto, BD Bioscience).

[3] = test system: Staphylococcus aureus ATCC 19636; experiment: Sepsis survival model, i.p. inoculation; format: in vivo; settings: 4×10^6 CFU/mouse i.p., n = 10
Method: (§3) Three-week old male ICR mice (19 to 21 g) were purchased from BioLASCO (Taiwan). Overnight culture of bacteria in BHI broth (Difco) was subcultured in fresh BHI broth to log phase. Inoculums were diluted in BHI broth to indicated densities. To test the acute toxicity of ARD peptide in vivo, ICR male mice were inoculated intraperitoneally (i.p.) with 10 and 20 mg/kg HBc147-183 in PBS, respectively. Each group contained 5 mice. After peptide injection, the number of dead mice was recorded daily for 7 days post-injection. To test the antimicrobial activity of the ARD peptide in vivo, all mice were inoculated i.p. with Staphylococcus aureus ATCC 19636 (4×10^6 CFU/mouse) in BHI broth. Peptide HBc147-183 (10 mg/kg) was administered i.p. at 1, 1.5 and 2 hours post-inoculation. PBS (10 ml/kg) control was administered at 1 hour post-inoculation. […] Mortality was monitored daily for 7 days post-inoculation. […] The mice were anesthetized first before transferring to the IVIS imaging system (IVIS spectrum), and luminescence was measured with an exposure time of 1 minutes or less. The image system measured the number of photons and translated the data to false color images that depicted the region of strong luminescence with red, moderate luminescence with yellow and green, and mild luminescence with blue. […] Total flux (RLU) of region of interest (ROI) was quantified by the IVIS imaging software.

[4] = test system: Staphylococcus aureus ATCC 19636; experiment: Bacterial load in infected mice; format: in vivo, mouse; settings: 10 mg/kg i.p. at 1 hour, sampled 4 hours post-inoculation, n = 5
Method: as §3

[5] = test system: Klebsiella pneumoniae Xen39; experiment: IVIS imaging of infected mice; format: in vivo; settings: 10 mg/kg at 1 hour, imaged 4 hours post-inoculation; 10^7 cfu/mouse; n = 5; P<0.01 vs PBS

`CC(C)[C@H](NC(=O)[C@@H](NC(=O)[C@@H](N)[C@@H](C)O)C(C)C)C(=O)N[C@@H](CCCNC(=N)N)C(=O)N[C@@H](CCCNC(=N)N)C(=O)N[C@@H](CCCNC(=N)N)C(=O)NCC(=O)N[C@@H](CCCNC(=N)N)C(=O)N[C@@H](CO)C(=O)N1CCC[C@H]1C(=O)N[C@@H](CCCNC(=N)N)C(=O)N[C@@H](CCCNC(=N)N)C(=O)N[C@@H](CCCNC(=N)N)C(=O)N[C@H](C(=O)N1CCC[C@H]1C(=O)N[C@@H](CO)C(=O)N1CCC[C@H]1C(=O)N[C@@H](CCCNC(=N)N)C(=O)N[C@@H](CCCNC(=N)N)C(=O)N[C@@H](CCCNC(=N)N)C(=O)N[C@@H](CCCNC(=N)N)C(=O)N[C@@H](CO)C(=O)N[C@@H](CCC(N)=O)C(=O)N[C@@H](CO)C(=O)N1CCC[C@H]1C(=O)N[C@@H](CCCNC(=N)N)C(=O)N[C@@H](CCCNC(=N)N)C(=O)N[C@@H](CCCNC(=N)N)C(=O)N[C@@H](CCCNC(=N)N)C(=O)N[C@@H](CO)C(=O)N[C@@H](CCC(N)=O)C(=O)N[C@@H](CO)C(=O)N[C@@H](CCCNC(=N)N)C(=O)N[C@@H](CCC(=O)O)C(=O)N[C@@H](CO)C(=O)N[C@@H](CCC(N)=O)C(=O)N[C@@H](CS)C(=O)O)[C@@H](C)O` [HBc147-183] (H-TVVRRRGRSPRRRTPSPRRRRSQSPRRRRSQSRESQC-OH; N-terminus and C-terminus assumed) was tested, and the “Membrane permeabilization (SYTOX Green uptake)” value (“Membrane permeabilization” for short) (P. aeruginosa) was “significant degree of membrane permeabilization”, the “Membrane permeabilization” value (K. pneumonia) was “not able to induce membrane permeabilization” and the “Membrane permeabilization” value (E. coli) was “not able to induce membrane permeabilization”. For the same compound, the “Membrane permeabilization” value (S. aureus) was “not able to induce membrane permeabilization”, the “Cell viability / cytotoxicity (MTT)” value (HEK293 cells [1]) was “low level of cytotoxicity” and the “Cell viability / cytotoxicity (MTT)” value (HepG2 cells) was “low level of cytotoxicity”. For the same compound, the “Cell viability / cytotoxicity (MTT)” value (Huh7 cells) was “low level of cytotoxicity”, the “Cell viability / cytotoxicity (MTT)” value (Vero cells) was “low level of cytotoxicity” and the “Effect on cell proliferation (CFSE intensity, day 3 vs mock)” value (HEK293 cells [2]) was “no significant effect”. For the same compound, the “Survival rate after 7 days” value ([3]; 10 mg/kg i.p. at 1.5 h post-inoculation) was 70%, the “Survival rate after 7 days” value ([3]; 10 mg/kg i.p. at 2 h post-inoculation (peak of bacterial load in blood)) was 40% and the “Bacterial load in blood, liver and spleen” value [4] was ~10^4 cfu/ml. The “Reduction of bacterial load in blood, liver and spleen vs PBS control” value ([4]; P<0.01) was 100 fold and the “Bioluminescence of infected mice” value [5] was “very weak”.
